system: spontaneous motor activity; experiment: Action on spontaneous motor activity in the mouse (BOISSIER); assay type: in vivo; settings: po, 0.5 h, 135 mg/kg p.o., 30 minutes after administration, vs control, read-out: Percentage variation in motor activity
Protocol: 2.1--Action on spontaneous motor activity in the mouse
30 minutes after administration per os of the test compounds, the mice (groups of 12 animals) are installed in individual cages in a BOISSIER activity measuring cupboard and move about before two photoelectric cells placed according to the rectangular coordinates. Meters register the movement during 20 minutes.

| Compound | change in vivo at 135 mg/kg [%] |
| --- | --- |
| COc1cc(NC(=O)N2CC(C)OC(C)C2)cc(OC)c1OC (stereo not drawn) [compound 788] | -34 |

same assay, conditions: po, 0.5 h, 170 mg/kg p.o., 30 minutes after administration, vs control, read-out: Percentage variation in motor activity

| Compound | change in vivo at 170 mg/kg [%] |
| --- | --- |
| COc1cc(NC(=O)N(C)C)cc(OC)c1OC [compound 775] | -40 |
| COc1cc(NCC(=O)N2CCN(C)CC2)cc(OC)c1OC [compound 786] | -20 |

same assay, conditions: po, 0.5 h, 250 mg/kg p.o., 30 minutes after administration, vs control, read-out: Percentage variation in motor activity

| Compound | change in vivo at 250 mg/kg [%] |
| --- | --- |
| COc1cc(NC(=O)NN2CCOCC2)cc(OC)c1OC [compound 807] | -33 |
| COc1cc(NC(=O)CN2CCOCC2)cc(OC)c1OC [compound 787] | -84 |

same assay, conditions: po, 0.5 h, 300 mg/kg p.o., 30 minutes after administration, vs control, read-out: Percentage variation in motor activity

| Compound | change in vivo at 300 mg/kg [%] |
| --- | --- |
| CCN(CC)C(=O)Nc1cc(OC)c(OC)c(OC)c1 [compound 809] | -78 |

same assay, conditions: po, 0.5 h, 350 mg/kg p.o., 30 minutes after administration, vs control, read-out: Percentage variation in motor activity

| Compound | change in vivo at 350 mg/kg [%] |
| --- | --- |
| COc1cc(NC(=O)OCCN2CCOCC2)cc(OC)c1OC [compound 818] | -33 |

same assay, conditions: po, 0.5 h, 375 mg/kg p.o., 30 minutes after administration, vs control, read-out: Percentage variation in motor activity

| Compound | change in vivo at 375 mg/kg [%] |
| --- | --- |
| COc1cc(NC(=O)N2CCCC2)cc(OC)c1OC [compound 810] | -38 |

same assay, conditions: po, 0.5 h, 400 mg/kg p.o., 30 minutes after administration, vs control, read-out: Percentage variation in motor activity

| Compound | change in vivo at 400 mg/kg [%] |
| --- | --- |
| COc1cc(NC(=O)N2CCN(C)CC2)cc(OC)c1OC [compound 759] | -45 |

same assay, conditions: po, 0.5 h, 500 mg/kg p.o., 30 minutes after administration, vs control, read-out: Percentage variation in motor activity

| Compound | change in vivo at 500 mg/kg [%] |
| --- | --- |
| COc1cc(CNC(=O)Nc2cc(OC)c(OC)c(OC)c2)cc(OC)c1OC [compound 798] | -20 |
| COc1cc(NC(=O)N2CCSCC2)cc(OC)c1OC [compound 804] | -24 |
| COc1cc(NC(=O)CCN2CCOCC2)cc(OC)c1OC [compound 817] | -17 |
| COc1cc(NS(=O)(=O)N2CCOCC2)cc(OC)c1OC [compound 791] | -53 |

system: convulsant effects of strychnine; experiment: Action against the convulsant effects of strychnine in the mouse; assay type: in vivo; settings: 170 mg/kg p.o., 30 minutes before strychnine 1.5 mg/kg s.c.
Protocol: (§1) 2.3--Test on the action against the convulsant effects of electric shock and of strychnine in the mouse
(§2) 30 minutes after administration of the compounds to groups of 10 animals, there is investigated the protection induced against:
convulsive crisis and death provoked by injection of strychnine at a limiting lethal dose of 1.5 mg/kg s.c.
(§3) The results are expressed as a percentage of protection based on a control group which have only received the administration vehicle for the compounds.

| Compound | Percentage protection against the convulsant effects of strychnine [%] |
| --- | --- |
| COc1cc(NC(=O)N(C)C)cc(OC)c1OC [compound 775] | 33 |

same assay, conditions: 400 mg/kg p.o., 30 minutes before strychnine 1.5 mg/kg s.c.

| Compound | Percentage protection against the convulsant effects of strychnine [%] |
| --- | --- |
| COc1cc(NC(=O)N2CCN(C)CC2)cc(OC)c1OC [compound 759] | 55 |

system: pentobarbital hypnosis time; experiment: Action on the pentobarbital hypnosis time in the mouse; assay type: in vivo; settings: po, 0.5 h, 170 mg/kg p.o., 30 minutes before pentobarbital 50 mg/kg i.v., vs control, read-out: Percentage variation in pentobarbital hypnosis time
Description: 2.2--Action on the pentobarbital hypnosis time in the mouse
The hypnosis time of each mouse is counted in minutes from the moment when the animal may be placed without resistance on its back until that when it spontaneously gets back on its feet.

| Compound | change in vivo at 170 mg/kg [%] |
| --- | --- |
| COc1cc(NC(=O)N(C)C)cc(OC)c1OC [compound 775] | 149 |
| COc1cc(NCC(=O)N2CCN(C)CC2)cc(OC)c1OC [compound 786] | 172 |

same assay, conditions: po, 0.5 h, 250 mg/kg p.o., 30 minutes before pentobarbital 50 mg/kg i.v., vs control, read-out: Percentage variation in pentobarbital hypnosis time

| Compound | change in vivo at 250 mg/kg [%] |
| --- | --- |
| COc1cc(NC(=O)NN2CCOCC2)cc(OC)c1OC [compound 807] | 98 |
| COc1cc(NC(=O)CN2CCOCC2)cc(OC)c1OC [compound 787] | 141 |

same assay, conditions: po, 0.5 h, 300 mg/kg p.o., 30 minutes before pentobarbital 50 mg/kg i.v., vs control, read-out: Percentage variation in pentobarbital hypnosis time

| Compound | change in vivo at 300 mg/kg [%] |
| --- | --- |
| CCN(CC)C(=O)Nc1cc(OC)c(OC)c(OC)c1 [compound 809] | 157 |

same assay, conditions: po, 0.5 h, 350 mg/kg p.o., 30 minutes before pentobarbital 50 mg/kg i.v., vs control, read-out: Percentage variation in pentobarbital hypnosis time

| Compound | change in vivo at 350 mg/kg [%] |
| --- | --- |
| COc1cc(NC(=O)OCCN2CCOCC2)cc(OC)c1OC [compound 818] | 180 |

same assay, conditions: po, 0.5 h, 375 mg/kg p.o., 30 minutes before pentobarbital 50 mg/kg i.v., vs control, read-out: Percentage variation in pentobarbital hypnosis time

| Compound | change in vivo at 375 mg/kg [%] |
| --- | --- |
| COc1cc(NC(=O)N2CCCC2)cc(OC)c1OC [compound 810] | 148 |

same assay, conditions: po, 0.5 h, 400 mg/kg p.o., 30 minutes before pentobarbital 50 mg/kg i.v., vs control, read-out: Percentage variation in pentobarbital hypnosis time

| Compound | change in vivo at 400 mg/kg [%] |
| --- | --- |
| COc1cc(NC(=O)N2CCN(C)CC2)cc(OC)c1OC [compound 759] | 22 |

same assay, conditions: po, 0.5 h, 500 mg/kg p.o., 30 minutes before pentobarbital 50 mg/kg i.v., vs control, read-out: Percentage variation in pentobarbital hypnosis time

| Compound | change in vivo at 500 mg/kg [%] |
| --- | --- |
| COc1cc(CNC(=O)Nc2cc(OC)c(OC)c(OC)c2)cc(OC)c1OC [compound 798] | 145 |
| COc1cc(NC(=O)N2CCSCC2)cc(OC)c1OC [compound 804] | 120 |
| COc1cc(NC(=O)CCN2CCOCC2)cc(OC)c1OC [compound 817] | 300 |
| COc1cc(NS(=O)(=O)N2CCOCC2)cc(OC)c1OC [compound 791] | 200 |

system: not listed separately; experiment: Acute toxicity for oral administration in mice; assay type: in vivo; settings: mouse, in vivo, po, suspension in 10% gum arabic
Protocol: 1--ACUTE TOXICITY FOR ORAL ADMINISTRATION IN MICE
The compounds are administered orally in increasing doses in suspension in a 10% gum arabic solution to groups of 5 .female. mice of mean weight 25 g. The 50% lethal doses (LD 50) are calculated by the method of KARBER and BEHRENS (Arch. Exp. Path. Pharmakol. 1935, 177, 379-388).
The LD 50's found are summarised in Table IV below and indicate that the tested compounds have low toxicity.

| Compound | LD50 [mg/kg] |
| --- | --- |
| COc1cc(NC(=O)N2CCOc3ccccc32)cc(OC)c1OC [compound 774] | > 5000 |
| COc1cc(NC(=O)NC2CCCC2)cc(OC)c1OC [compound 800] | > 5000 |
| COc1cc(NC(=O)NC(=O)CN2CCOCC2)cc(OC)c1OC [compound 834] | 3380 |
| COc1cc(NC(=O)NC2CCCCC2)cc(OC)c1OC [compound 778] | > 5000 |
| COc1cc(NC(=O)N2CCN(C)CC2)cc(OC)c1OC [compound 759] | 4000 |
| COc1cc(NC(=O)NCCCN(C)C)cc(OC)c1OC [compound 785] | 2200 |
| COc1cc(NC(=O)N2CCCC2)cc(OC)c1OC [compound 810] | 3750 |
| COc1cc(NC(=O)N(C)CCCN(C)C)cc(OC)c1OC [compound 805] | 2500 |
| COc1cc(NC(=O)NC2CCCCCC2)cc(OC)c1OC [compound 799] | > 5000 |
| COc1cc(N(Cc2ccccc2)C(=O)N2CCOCC2)cc(OC)c1OC [compound 821] | 2500 |
| COc1cc(NCC(=O)N2CCOc3ccc(Cl)cc32)cc(OC)c1OC [compound 762] | > 5000 |
| COc1cc(NC(=O)N(C)C)cc(OC)c1OC [compound 775] | 1700 |
| COc1cc(NC(=O)NCCc2ccc(Cl)cc2)cc(OC)c1OC [compound 796] | > 5000 |
| COc1cc(NC(=O)N2CCN(CC(=O)N3CCCCC3)CC2)cc(OC)c1OC [compound 830] | 5000 |
| COc1cc(NC(=O)N2CCC(O)CC2)cc(OC)c1OC [compound 814] | 5000 |
| COc1cc(CNC(=O)Nc2cc(OC)c(OC)c(OC)c2)cc(OC)c1OC [compound 798] | > 5000 |
| COc1cc(NC(=O)N(C)C2CCCCC2)cc(OC)c1OC [compound 802] | > 5000 |
| COc1cc(NC(=O)N2CCSCC2)cc(OC)c1OC [compound 804] | > 5000 |
| CCN(CC)C(=O)Nc1cc(OC)c(OC)c(OC)c1 [compound 809] | 3000 |
| COc1cc(NC(=O)CCN2CCOCC2)cc(OC)c1OC [compound 817] | 5000 |
| COc1cc(NC(=O)NN2CCOCC2)cc(OC)c1OC [compound 807] | 2500 |
| COc1cc(NC(=O)N2CC(C)OC(C)C2)cc(OC)c1OC (stereo not drawn) [compound 788] | 1350 |
| COc1cc(NCC(=O)N2CCN(C)CC2)cc(OC)c1OC [compound 786] | 1700 |
| COc1cc(NS(=O)(=O)N2CCOCC2)cc(OC)c1OC [compound 791] | > 5000 |
| COc1cc(NC(=O)CN2CCOCC2)cc(OC)c1OC [compound 787] | 2500 |

same assay, conditions: mouse, in vivo, suspension in 10% gum arabic

| Compound | LD50 [mg/kg] |
| --- | --- |
| COc1cc(NC(=O)OCCN2CCOCC2)cc(OC)c1OC [compound 818] | 3500 |

system: convulsant effects of electric shock; experiment: Action against the convulsant effects of electric shock in the mouse; assay type: in vivo; settings: po, 0.5 h, 300 mg/kg p.o., 30 minutes before shock, 13 to 16 mA for 0.1 sec, read-out: Percentage protection against the convulsant effects of the electric shock
Protocol: as §1, §2
tonic crisis (extension of rear feet) provoked by supramaximal transcranial electric stimulation (13 to 16 mA for 0.1 sec).
as §3

| Compound | responders at 300 mg/kg [%] |
| --- | --- |
| CCN(CC)C(=O)Nc1cc(OC)c(OC)c(OC)c1 [compound 809] | 80 |

same assay, conditions: po, 0.5 h, 375 mg/kg p.o., 30 minutes before shock, 13 to 16 mA for 0.1 sec, read-out: Percentage protection against the convulsant effects of the electric shock

| Compound | responders at 375 mg/kg [%] |
| --- | --- |
| COc1cc(NC(=O)N2CCCC2)cc(OC)c1OC [compound 810] | 70 |

same assay, conditions: po, 0.5 h, 500 mg/kg p.o., 30 minutes before shock, 13 to 16 mA for 0.1 sec, read-out: Percentage protection against the convulsant effects of the electric shock

| Compound | responders at 500 mg/kg [%] |
| --- | --- |
| COc1cc(CNC(=O)Nc2cc(OC)c(OC)c(OC)c2)cc(OC)c1OC [compound 798] | 40 |
| COc1cc(NC(=O)CCN2CCOCC2)cc(OC)c1OC [compound 817] | 40 |
